Data from ChEMBL document CHEMBL5393442, “Combined inhibition of amino acid transporters for inhibiting human plasmacytoid dendritic cell activity during autoimmunity” (2022).
Calls of active or inactive are those of the source. The rule behind the calls is not given here.

How the values were obtained:
[1] = target: T1, Cystine/glutamate transporter (Homo sapiens, UniProt Q9UPY5); experiment: Inhibition of XCT (unknown origin)
T1 sequence (Q9UPY5 whole entry): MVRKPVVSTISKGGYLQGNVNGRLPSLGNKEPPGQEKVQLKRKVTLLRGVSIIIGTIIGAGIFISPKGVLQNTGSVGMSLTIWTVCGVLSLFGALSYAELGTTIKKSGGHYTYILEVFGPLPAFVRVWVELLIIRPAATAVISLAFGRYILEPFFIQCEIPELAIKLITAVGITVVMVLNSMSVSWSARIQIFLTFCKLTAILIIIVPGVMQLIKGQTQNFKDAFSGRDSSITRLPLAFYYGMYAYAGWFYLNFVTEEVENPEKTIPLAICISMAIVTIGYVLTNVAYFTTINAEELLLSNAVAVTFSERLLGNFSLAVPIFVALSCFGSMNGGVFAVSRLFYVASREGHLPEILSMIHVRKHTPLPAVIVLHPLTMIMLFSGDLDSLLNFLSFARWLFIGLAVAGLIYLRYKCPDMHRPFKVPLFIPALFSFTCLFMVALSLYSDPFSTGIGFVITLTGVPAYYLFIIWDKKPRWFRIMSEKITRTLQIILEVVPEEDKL

[2] = target: Large neutral amino acids transporter small subunit 1 (Homo sapiens) (UniProt Q01650); experiment: Inhibition of human LAT1 at 100 uM relative to control
Chain of Large neutral amino acids transporter small subunit 1 (Homo sapiens) (Q01650 whole entry): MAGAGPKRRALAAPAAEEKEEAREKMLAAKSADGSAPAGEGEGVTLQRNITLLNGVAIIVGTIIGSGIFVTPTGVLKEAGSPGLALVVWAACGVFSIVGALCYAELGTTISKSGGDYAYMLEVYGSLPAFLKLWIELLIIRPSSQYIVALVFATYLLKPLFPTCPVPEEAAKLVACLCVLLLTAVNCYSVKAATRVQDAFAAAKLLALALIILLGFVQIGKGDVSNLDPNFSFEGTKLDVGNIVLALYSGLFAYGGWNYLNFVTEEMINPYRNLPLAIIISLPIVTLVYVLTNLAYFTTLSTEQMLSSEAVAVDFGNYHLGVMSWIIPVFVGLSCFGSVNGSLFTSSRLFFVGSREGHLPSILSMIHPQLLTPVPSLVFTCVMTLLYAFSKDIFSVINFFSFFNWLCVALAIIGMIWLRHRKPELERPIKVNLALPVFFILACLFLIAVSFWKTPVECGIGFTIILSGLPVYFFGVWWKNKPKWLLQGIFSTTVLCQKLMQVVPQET

[3] = target: Tyrosine-protein kinase JAK2 (Homo sapiens) (UniProt O60674); experiment: Inhibition of JAK2 in TLR9-activated human plasmacytoid dendritic cells at 20 nM assessed as decrease in CpG-A stimulated SLC7A11 expression; type: cell-based; settings: Plasmacytoid dendritic cell
Chain of Tyrosine-protein kinase JAK2 (Homo sapiens) (O60674 whole entry): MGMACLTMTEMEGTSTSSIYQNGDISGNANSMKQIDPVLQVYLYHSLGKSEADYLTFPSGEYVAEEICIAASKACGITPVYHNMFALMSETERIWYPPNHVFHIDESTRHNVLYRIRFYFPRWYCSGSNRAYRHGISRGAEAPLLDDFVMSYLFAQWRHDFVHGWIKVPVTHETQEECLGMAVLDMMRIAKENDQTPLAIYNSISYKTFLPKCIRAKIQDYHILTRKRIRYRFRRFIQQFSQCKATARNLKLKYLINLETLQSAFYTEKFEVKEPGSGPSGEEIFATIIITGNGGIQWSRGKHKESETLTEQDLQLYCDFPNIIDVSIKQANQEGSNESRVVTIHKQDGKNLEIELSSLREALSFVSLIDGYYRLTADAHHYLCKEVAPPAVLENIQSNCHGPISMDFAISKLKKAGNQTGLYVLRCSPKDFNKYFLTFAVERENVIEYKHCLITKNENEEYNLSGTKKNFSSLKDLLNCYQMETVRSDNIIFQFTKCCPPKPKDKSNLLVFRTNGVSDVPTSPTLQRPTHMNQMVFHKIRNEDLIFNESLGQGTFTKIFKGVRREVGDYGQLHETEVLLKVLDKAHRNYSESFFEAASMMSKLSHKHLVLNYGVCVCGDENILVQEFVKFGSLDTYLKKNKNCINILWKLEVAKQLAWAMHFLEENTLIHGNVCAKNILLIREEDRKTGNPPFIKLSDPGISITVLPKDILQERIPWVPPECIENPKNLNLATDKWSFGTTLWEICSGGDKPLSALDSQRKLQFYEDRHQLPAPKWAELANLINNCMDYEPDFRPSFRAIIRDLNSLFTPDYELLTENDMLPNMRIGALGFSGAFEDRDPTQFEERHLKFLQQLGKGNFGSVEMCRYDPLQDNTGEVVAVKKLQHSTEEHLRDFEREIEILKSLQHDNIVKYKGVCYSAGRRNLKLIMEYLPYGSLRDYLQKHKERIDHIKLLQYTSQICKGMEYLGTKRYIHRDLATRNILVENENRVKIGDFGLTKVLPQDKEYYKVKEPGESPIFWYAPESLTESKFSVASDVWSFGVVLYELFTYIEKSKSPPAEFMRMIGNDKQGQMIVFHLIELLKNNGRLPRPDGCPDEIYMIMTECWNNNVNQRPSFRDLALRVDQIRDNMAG

mTORC1 (Homo sapiens) [4] = target: T2, mTORC1 (Homo sapiens) (UniProt P42345+Q8N122+Q9BVC4); settings: Plasmacytoid dendritic cell, dose 20.0 nM
T2 sequence (Q8N122 whole entry, looked up, other chains not shown): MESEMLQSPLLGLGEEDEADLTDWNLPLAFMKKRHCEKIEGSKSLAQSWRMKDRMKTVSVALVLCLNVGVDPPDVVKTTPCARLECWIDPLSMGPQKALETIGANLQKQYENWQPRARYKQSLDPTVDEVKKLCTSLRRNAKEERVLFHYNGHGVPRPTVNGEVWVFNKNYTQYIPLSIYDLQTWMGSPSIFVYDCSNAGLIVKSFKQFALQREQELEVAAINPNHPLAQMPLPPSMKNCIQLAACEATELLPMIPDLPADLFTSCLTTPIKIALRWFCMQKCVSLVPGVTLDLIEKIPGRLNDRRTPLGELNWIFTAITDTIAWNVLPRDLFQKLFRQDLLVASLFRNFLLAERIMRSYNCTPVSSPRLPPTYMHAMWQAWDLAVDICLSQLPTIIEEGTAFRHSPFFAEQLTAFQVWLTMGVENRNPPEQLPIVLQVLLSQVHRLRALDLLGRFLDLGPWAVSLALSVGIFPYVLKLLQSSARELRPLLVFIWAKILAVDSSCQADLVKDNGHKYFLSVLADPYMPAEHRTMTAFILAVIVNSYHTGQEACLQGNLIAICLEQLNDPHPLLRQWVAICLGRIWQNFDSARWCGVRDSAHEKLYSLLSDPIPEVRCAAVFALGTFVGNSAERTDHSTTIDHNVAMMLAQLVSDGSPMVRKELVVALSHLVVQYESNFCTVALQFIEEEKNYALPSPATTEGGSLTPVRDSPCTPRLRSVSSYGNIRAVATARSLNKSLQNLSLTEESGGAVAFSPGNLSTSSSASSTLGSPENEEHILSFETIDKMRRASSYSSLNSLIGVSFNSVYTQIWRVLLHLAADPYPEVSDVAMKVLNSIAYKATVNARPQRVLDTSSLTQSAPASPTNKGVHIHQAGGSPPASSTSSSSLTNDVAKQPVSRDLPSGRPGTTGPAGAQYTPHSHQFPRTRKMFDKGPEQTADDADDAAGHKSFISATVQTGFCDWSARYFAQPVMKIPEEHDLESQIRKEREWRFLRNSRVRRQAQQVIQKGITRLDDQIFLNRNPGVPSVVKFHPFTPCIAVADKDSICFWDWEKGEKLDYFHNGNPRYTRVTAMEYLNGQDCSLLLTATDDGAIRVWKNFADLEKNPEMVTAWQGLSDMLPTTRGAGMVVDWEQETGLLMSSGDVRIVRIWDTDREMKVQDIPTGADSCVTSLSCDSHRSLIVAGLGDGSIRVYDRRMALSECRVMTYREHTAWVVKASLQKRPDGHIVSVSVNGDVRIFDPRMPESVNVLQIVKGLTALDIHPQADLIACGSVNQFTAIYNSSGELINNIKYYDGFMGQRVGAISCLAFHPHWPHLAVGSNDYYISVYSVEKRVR
T2 sequence (Q9BVC4 whole entry, looked up, other chains not shown): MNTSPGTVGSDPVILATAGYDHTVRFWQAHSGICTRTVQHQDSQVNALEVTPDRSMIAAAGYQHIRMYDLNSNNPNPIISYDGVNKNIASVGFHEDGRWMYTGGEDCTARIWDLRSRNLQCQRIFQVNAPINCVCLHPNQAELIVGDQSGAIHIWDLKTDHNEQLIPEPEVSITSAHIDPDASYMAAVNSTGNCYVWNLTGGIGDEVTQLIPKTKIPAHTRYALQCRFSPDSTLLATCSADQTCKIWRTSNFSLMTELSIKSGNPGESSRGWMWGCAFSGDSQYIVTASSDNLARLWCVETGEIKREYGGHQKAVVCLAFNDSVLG
Description: Inhibition of mTORC1 in CpG-A-stimulated human plasmacytoid dendritic cells at 20 nM assessed as decrease in lactate release

mTORC1 (Homo sapiens) [5] = target: T2, mTORC1 (Homo sapiens); settings: Plasmacytoid dendritic cell, dose 250.0 nM
Description: Inhibition of mTORC1 in CpG-A-stimulated human plasmacytoid dendritic cells at 250 nM assessed as decrease in lactate release

[6] = target: Tyrosine-protein kinase JAK2 (Homo sapiens) (UniProt O60674); experiment: Inhibition of JAK2 in IL3- and CpG-A-activated human plasmacytoid dendritic cells at 20 nM assessed as decrease in MYO1E/IFNA2 expression; type: cell-based; settings: Plasmacytoid dendritic cell
[7] = target: Tyrosine-protein kinase JAK2 (Homo sapiens) (UniProt O60674); experiment: Inhibition of JAK2 in IL3- and CpG-A-activated human plasmacytoid dendritic cells at 20 nM assessed as decrease in ENPP2/IFNA2 expression; type: cell-based; settings: Plasmacytoid dendritic cell
[8] = target: Glyceraldehyde-3-phosphate dehydrogenase (Homo sapiens) (UniProt P04406); experiment: Inhibition of GAPDH in CpG-A-stimulated human plasmacytoid dendritic cells at 10 uM assessed as reduction in secreted lactate levels; type: cell-based; settings: Plasmacytoid dendritic cell
Chain of Glyceraldehyde-3-phosphate dehydrogenase (Homo sapiens) (P04406 2-335 limits assumed): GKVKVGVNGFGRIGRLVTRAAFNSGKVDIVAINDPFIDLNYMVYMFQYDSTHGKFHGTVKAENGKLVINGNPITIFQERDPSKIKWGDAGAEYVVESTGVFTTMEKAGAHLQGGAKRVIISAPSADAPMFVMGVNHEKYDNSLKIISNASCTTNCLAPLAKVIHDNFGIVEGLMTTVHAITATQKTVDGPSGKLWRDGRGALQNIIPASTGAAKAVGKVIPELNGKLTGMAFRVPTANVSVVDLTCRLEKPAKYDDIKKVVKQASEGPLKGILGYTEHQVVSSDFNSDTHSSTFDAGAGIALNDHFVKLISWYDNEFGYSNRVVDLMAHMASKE

[9] = target: Glyceraldehyde-3-phosphate dehydrogenase (Homo sapiens) (UniProt P04406); experiment: Inhibition of GAPDH in CpG-A-stimulated human plasmacytoid dendritic cells at 10 uM assessed as reduction in overall protein synthesis; type: cell-based; settings: Plasmacytoid dendritic cell
[10] = target: Glyceraldehyde-3-phosphate dehydrogenase (Homo sapiens) (UniProt P04406); experiment: Inhibition of GAPDH in CpG-A-stimulated human plasmacytoid dendritic cells at 10 uM assessed as reduction in TNF production; type: cell-based; settings: Plasmacytoid dendritic cell
[11] = target: Glyceraldehyde-3-phosphate dehydrogenase (Homo sapiens) (UniProt P04406); experiment: Inhibition of GAPDH in CpG-A-stimulated human plasmacytoid dendritic cells at 10 uM assessed as reduction in TNF production in presence of 1 uM oligomycin; type: cell-based; settings: Plasmacytoid dendritic cell
[12] = target: Glyceraldehyde-3-phosphate dehydrogenase (Homo sapiens) (UniProt P04406); experiment: Inhibition of GAPDH in CpG-A-stimulated human plasmacytoid dendritic cells at 10 uM assessed as reduction in IFNa-alpha production; type: cell-based; settings: Plasmacytoid dendritic cell
[13] = target: Glyceraldehyde-3-phosphate dehydrogenase (Homo sapiens) (UniProt P04406); experiment: Inhibition of GAPDH in CpG-A-stimulated human plasmacytoid dendritic cells at 10 uM assessed as reduction in IFN-alpha production in presence of 1 uM oligomycin; type: cell-based; settings: Plasmacytoid dendritic cell
[14] = system: Plasmacytoid dendritic cell; experiment: Inhibition of F1F0-ATP synthase in human plasmacytoid dendritic cells at 1 uM assessed as decrease in TNF production; type: cell-based
[15] = system: Plasmacytoid dendritic cell; experiment: Inhibition of F1F0-ATP synthase in CpG-A-stimulated human plasmacytoid dendritic cells at 1 uM assessed as reduction in TNF production in presence of 10 uM heptelidic acid; type: cell-based
[16] = system: Plasmacytoid dendritic cell; experiment: Inhibition of F1F0-ATP synthase in human plasmacytoid dendritic cells at 1 uM assessed as decrease in IFN-alpha production; type: cell-based
[17] = system: Plasmacytoid dendritic cell; experiment: Inhibition of F1F0-ATP synthase in CpG-A-stimulated human plasmacytoid dendritic cells at 1 uM assessed as reduction in IFN-alpha production in presence of 10 uM heptelidic acid; type: cell-based
[18] = system: Plasmacytoid dendritic cell; experiment: Inhibition of SLC7A5/SLC3A2 in CpG-A-stimulated human plasmacytoid dendritic cells at 10 uM assessed as decrease in kynurenine transport; type: cell-based

SMILES: Nc1ccc(/N=N/c2ccc(-c3ccc(/N=N/c4ccc(N)c5ccc(S(=O)(=O)O)cc45)cc3)cc2)c2cc(S(=O)(=O)O)ccc12
- IC50 [1]: 4.3 µM

SMILES: N#Cc1cc(Cl)ccc1/N=c1\ssnc1Cl
- inhibition [2]: > 90%

SMILES: Nc1c(/N=N/c2ccc(Oc3ccc(/N=N/c4cc(S(=O)(=O)O)c5ccccc5c4N)cc3)cc2)cc(S(=O)(=O)O)c2ccccc12
- IC50 [1]: 11 µM

SMILES: CO[C@H]1CC2CC[C@@H](C)[C@@](O)(O2)C(=O)C(=O)N2CCCC[C@H]2C(=O)O[C@H]([C@H](C)C[C@@H]2CC[C@@H](O)[C@H](OC)C2)CC(=O)[C@H](C)/C=C(\C)[C@@H](O)[C@@H](OC)C(=O)[C@H](C)C[C@H](C)/C=C/C=C/C=C/1C
- inhibition [3]: Active
- inhibition (mTORC1 (Homo sapiens) [4]): Active
- inhibition (mTORC1 (Homo sapiens) [5]): Active
- inhibition [6]: Active
- inhibition [7]: Active

SMILES: FC(F)(F)Oc1ccc(/N=c2\ssnc2Cl)cc1Cl
- inhibition [2]: > 90%

SMILES: CC(C)[C@H]1CC[C@@]2(CO2)[C@H]2C(=O)OCC(C(=O)O)=C[C@H]12
- inhibition [8]: Active
- inhibition [9]: Active
- inhibition [10]: Active
- inhibition [11]: Active
- inhibition [12]: Active
- inhibition [13]: Active

SMILES: CC[C@H]1/C=C/C=C/C[C@@H](C)[C@H](O)[C@@](C)(O)C(=O)[C@@H](C)[C@H](O)[C@@H](C)C(=O)[C@@H](C)[C@H](O)[C@@H](C)/C=C/C(=O)O[C@@H]2[C@H](C)[C@H](CC1)O[C@]1(CC[C@H](C)[C@H](C[C@@H](C)O)O1)[C@H]2C
- inhibition [14]: inactive
- inhibition [15]: Active
- inhibition [16]: Active
- inhibition [17]: Active

SMILES: NC1(C(=O)O)CC2CCC1C2 (stereo not given)
- inhibition [18]: Active
